Consider six compounds from US20260324639A1, “MICROBIOCIDAL PYRAZOLE DERIVATIVES” (SYNGENTA CROP PROTECTION AG, priority 2022, published 2026).

One assay has as its system Alternaria solani. The assay can be described thus: Alternaria solani/tomato/leaf disc (early blight). It counts as in vivo. The conditions noted are these: 200 ppm; tomato leaf disks cv. Baby; inoculated 2 days after application; assessed 5-7 days after application. On the procedure: Tomato leaf disks cv. Baby are placed on agar in multiwell plates (24-well format) and sprayed with the formulated test compound diluted in water. The leaf disks are inoculated with a spore suspension of the fungus 2 days after application. The inoculated leaf disks are incubated at 23° C./21° C. (day/night) and 80% rh under a light regime of 12/12 h (light/dark) in a climate cabinet and the activity of a compound is assessed as percent disease control compared to untreated when an appropriate level of disease damage appears on untreated check disk leaf disks (5-7 days after application).

Another assay relates to Botryotinia fuckeliana. In words: Botryotinia fuckeliana (Botrytis cinerea)/liquid culture (gray mould). It counts as cell-based. The conditions noted are these: liquid culture, Vogels broth, 24° C., growth inhibition photometric 3-4 days after application, read-out: control of Botryotinia fuckeliana compared to untreated control. Here is the method: Conidia of the fungus from cryogenic storage are directly mixed into nutrient broth (Vogels broth). After placing a (DMSO) solution of test compound into a microtiter plate (96-well format), the nutrient broth containing the fungal spores is added. The test plates are incubated at 24° C. and the inhibition of growth is determined photometrically 3-4 days after application.

The next assay deals with Glomerella lagenarium. In words: Glomerella lagenarium (Colletotrichum lagenarium)/liquid culture (anthracnose). It counts as cell-based. The note with it: Colletotrichum orbiculare, liquid culture, PDB, 24° C., growth inhibition photometric 3-4 days after application, read-out: control of Glomerella lagenarium compared to untreated control. On the procedure: Conidia of the fungus from cryogenic storage are directly mixed into nutrient broth (PDB potato dextrose broth). After placing a (DMSO) solution of test compound into a microtiter plate (96-well format), the nutrient broth containing the fungal spores is added. The test plates are incubated at 24° C. and the inhibition of growth is measured photometrically 3-4 days after application.

The test system of assay [1] is Blumeria graminis f. sp. tritici. The assay can be described thus: Blumeria graminis f. sp. tritici/wheat/leaf disc preventative (powdery mildew on wheat). The assay is classed as in vivo. The conditions noted are these: 200 ppm, wheat leaf segments cv. Kanzler, inoculated 1 day after application, assessed 6-8 days after application. Here is the method: Wheat leaf segments cv. Kanzler are placed on agar in a multiwell plate (24-well format) and sprayed with the formulated test compound diluted in water. The leaf disks are inoculated by shaking powdery mildew infected plants above the test plates 1 day after application. The inoculated leaf disks are incubated at 20° C. and 60% rh under a light regime of 24 h darkness followed by 12 h light/12 h darkness in a climate chamber and the activity of a compound is assessed as percent disease control compared to untreated when an appropriate level of disease damage appears on untreated check leaf segments (6-8 days after application).

In the next assay the test system is Phaeosphaeria nodorum. In words: Phaeosphaeria nodorum (Septoria nodorum)/wheat/leaf disc preventative (glume blotch). It counts as in vivo. The note with it: 200 ppm, wheat leaf segments cv. Kanzler, inoculated 2 days after application, assessed 5-7 days after application. On the procedure: Wheat leaf segments cv. Kanzler are placed on agar in a multiwell plate (24-well format) and sprayed with the formulated test compound diluted in water. The leaf disks are inoculated with a spore suspension of the fungus 2 days after application. The inoculated test leaf disks are incubated at 20° C. and 75% rh under a light regime of 12 h light/12 h darkness in a climate cabinet and the activity of a compound is assessed as percent disease control compared to untreated when an appropriate level of disease damage appears in untreated check leaf disks (5-7 days after application).

Another assay concerns Monographella nivalis. The assay can be described thus: Monographella nivalis (Microdochium nivale)/liquid culture (foot rot cereals). The note with it: liquid culture, PDB, 24° C., growth inhibition photometric 4-5 days after application, read-out: control of Monographella nivalis compared to untreated control. The assay is classed as cell-based. On the procedure:
(§1) Conidia of the fungus from cryogenic storage are directly mixed into nutrient broth (PDB potato dextrose broth). After placing a (DMSO) solution of test compound into a microtiter plate (96-well format), the nutrient broth containing the fungal spores is added. The test plates are incubated at 24° C. and the inhibition of growth is determined photometrically 4-5 days after application.

The test system of a further assay is Mycosphaerella arachidis. The assay can be described thus: Mycosphaerella arachidis (Cercospora arachidicola)/liquid culture (early leaf spot). The assay is classed as cell-based. The note with it: liquid culture, PDB, 24° C., growth inhibition photometric 4-5 days after application, read-out: control of Mycosphaerella arachidis compared to untreated control. On the procedure:
as §1

The test system of the next assay is Pyrenophora teres. In words: Pyrenophora teres/barley/leaf disc preventative (net blotch). It counts as in vivo. The conditions noted are these: 200 ppm, barley leaf segments cv. Hasso, inoculated 2 days after application, assessed 5-7 days after application. On the procedure: Barley leaf segments cv. Hasso are placed on agar in a multiwell plate (24-well format) and sprayed with the formulated test compound diluted in water. The leaf segments are inoculated with a spore suspension of the fungus 2 days after application. The inoculated leaf segments are incubated at 20° C. and 65% rh under a light regime of 12 h light/12 h darkness in a climate cabinet and the activity of a compound is assessed as disease control compared to untreated when an appropriate level of disease damage appears in untreated check leaf segments (5-7 days after application).

The test system of assay [2] is Mycosphaerella graminicola. The assay can be described thus: Mycosphaerella graminicola (Septoria tritici)/liquid culture (Septoria blotch). It counts as cell-based. The note with it: Zymoseptoria tritici, liquid culture, PDB, 24° C., growth inhibition photometric 4-5 days after application, read-out: control of Mycosphaerella graminicola compared to untreated control. On the procedure: as §1

Assay [3] deals with Puccinia recondita f. sp. tritici. The assay can be described thus: Puccinia recondita f. sp. tritici/wheat/leaf disc preventative (brown rust). It counts as in vivo. The note with it: 200 ppm, inoculated 1 day after application, wheat leaf segments cv. Kanzler, assessed 7-9 days after application. Here is the method: Wheat leaf segments cv. Kanzler are placed on agar in multiwell plates (24-well format) and sprayed with the formulated test compound diluted in water. The leaf disks are inoculated with a spore suspension of the fungus 1 day after application. The inoculated leaf segments are incubated at 19° C. and 75% rh under a light regime of 12 h light/12 h darkness in a climate cabinet and the activity of a compound is assessed as percent disease control compared to untreated when an appropriate level of disease damage appears in untreated check leaf segments (7-9 days after application).

The test system of a further assay is Fusarium culmorum. The assay can be described thus: microbe, parasite or virus in culture. It counts as cell-based. The conditions noted are these: read-out: control of Fusarium culmorum compared to untreated control. On the procedure: Conidia of the fungus from cryogenic storage are directly mixed into nutrient broth (PDB potato dextrose broth). After placing a (DMSO) solution of test compound into a microtiter plate (96-well format), the nutrient broth containing the fungal spores is added. The test plates are incubated at 24° C. and the inhibition of growth is determined photometrically 3-4 days after application.

Molecules are shown by their SMILES. Bounds are passed on as bounds.

For `C[C@H]1c2ccccc2[C@@H](c2cnn(C)c2)CN1C(=O)c1cn(-c2ncc(F)cc2F)nn1` [Compound P-51, [1-(3,5-difluoro-2-pyridyl)triazol-4-yl]-[(1S,4S)-1-methyl-4-(1-methylpyrazol-4-yl)-3,4-dihydro-1H-isoquinolin-2-yl]methanone], the “control of Alternaria solani compared to untreated control” value in the assay on Alternaria solani was “at least 80%”. For the same compound, the inhibition of growth at 20 ppm (with Botryotinia fuckeliana; in the assay with Glomerella lagenarium; in the assay with Monographella nivalis; with Mycosphaerella arachidis; in assay [2]) was at least 80% throughout. Further, in [1], the “control of Blumeria graminis f. sp. tritici compared to untreated control” value was “at least 80%”. Moreover, in the assay with Phaeosphaeria nodorum, the “control of Phaeosphaeria nodorum compared to untreated control” value was “at least 80%”. Besides, the “control of Pyrenophora teres compared to untreated control” value with Pyrenophora teres is given as “at least 80%”.
As to `C[C@H]1c2ccccc2[C@@H](c2cnn(C)c2Cl)CN1C(=O)c1nnn(-c2ccc(F)cc2F)n1` [Compound P-49, [(1S,4S)-4-(5-chloro-1-methyl-pyrazol-4-yl)-1-methyl-3,4-dihydro-1H-isoquinolin-2-yl]-[2-(2,4-difluorophenyl)tetrazol-5-yl]methanone], in the assay on Alternaria solani, the “control of Alternaria solani compared to untreated control” value is reported as “at least 80%”. In addition, the inhibition of growth at 20 ppm (with Botryotinia fuckeliana; with Glomerella lagenarium; with Monographella nivalis; with Mycosphaerella arachidis; in assay [2]) was at least 80% throughout. For the same compound, the “control of Blumeria graminis f. sp. tritici compared to untreated control” value in [1] is listed as “at least 80%”. Also, the “control of Phaeosphaeria nodorum compared to untreated control” value in the assay with Phaeosphaeria nodorum was “at least 80%”. Further, in assay [3], the “control of Puccinia recondita f. sp. tritici compared to untreated control” value is listed as “at least 80%”. Further, the “control of Pyrenophora teres compared to untreated control” value with Pyrenophora teres is listed as “at least 80%”.
For the compound `Cc1c(C2CN(C(=O)c3cn(-c4ccc(F)cc4F)nn3)Cc3ccccc32)cnn1C` (centres unmarked) [Compound P-56, [1-(2,4-difluorophenyl)triazol-4-yl]-[4-(1,5-dimethylpyrazol-4-yl)-3,4-dihydro-1H-isoquinolin-2-yl]methanone], the “control of Alternaria solani compared to untreated control” value in the assay on Alternaria solani is listed as “at least 80%”. Besides, the inhibition of growth at 20 ppm (with Botryotinia fuckeliana; in the assay on Glomerella lagenarium; with Monographella nivalis; with Mycosphaerella arachidis; in assay [2]) was at least 80% in each case. Moreover, the “control of Blumeria graminis f. sp. tritici compared to untreated control” value in assay [1] is reported as “at least 80%”. Besides, the “control of Phaeosphaeria nodorum compared to untreated control” value with Phaeosphaeria nodorum is “at least 80%”. Further, the “control of Pyrenophora teres compared to untreated control” value with Pyrenophora teres is reported as “at least 80%”.
Take `C[C@H]1c2ccccc2[C@@H](c2cnn(C)c2Cl)CN1C(=O)c1cn(-c2ncc(F)cc2F)nn1` (racemic) [Compound P-53, [1-(3,5-difluoro-2-pyridyl)triazol-4-yl]-[rac-(1S,4S)-4-(5-chloro-1-methyl-pyrazol-4-yl)-1-methyl-3,4-dihydro-1H-isoquinolin-2-yl]methanone]: the “control of Alternaria solani compared to untreated control” value in the assay with Alternaria solani is listed as “at least 80%”. The inhibition of growth at 20 ppm (in the assay with Botryotinia fuckeliana; in the assay on Glomerella lagenarium; in the assay with Fusarium culmorum; in the assay on Monographella nivalis; in the assay on Mycosphaerella arachidis; in assay [2]) was at least 80% in each case. In [1], the “control of Blumeria graminis f. sp. tritici compared to untreated control” value is “at least 80%”. For the same compound, the “control of Phaeosphaeria nodorum compared to untreated control” value with Phaeosphaeria nodorum is given as “at least 80%”. The “control of Pyrenophora teres compared to untreated control” value with Pyrenophora teres is “at least 80%”.
For `COc1ccc2c(c1)[C@@H](c1cnn(C)c1)CN(C(=O)c1nnn(-c3ccccc3)n1)[C@H]2C` (single isomer, unassigned) [Compound P-37], the inhibition of growth at 20 ppm (in the assay with Botryotinia fuckeliana; in the assay with Monographella nivalis; with Mycosphaerella arachidis; in [2]) was at least 80% each time. In addition, in assay [1], the “control of Blumeria graminis f. sp. tritici compared to untreated control” value is reported as “at least 80%”. Further, in the assay with Phaeosphaeria nodorum, the “control of Phaeosphaeria nodorum compared to untreated control” value is “at least 80%”. For the same compound, the “control of Puccinia recondita f. sp. tritici compared to untreated control” value in [3] was “at least 80%”. Further, the “control of Pyrenophora teres compared to untreated control” value in the assay with Pyrenophora teres is on record as “at least 80%”.
On to `Cc1c([C@H]2CN(C(=O)c3cn(-c4ncc(F)cc4F)nn3)[C@@H](C)c3ccccc32)cnn1C` [Compound P-43, [1-(3,5-difluoro-2-pyridyl)triazol-4-yl]-[(1S,4S)-4-(1,5-dimethylpyrazol-4-yl)-1-methyl-3,4-dihydro-1H-isoquinolin-2-yl]methanone], for which the “control of Alternaria solani compared to untreated control” value in the assay with Alternaria solani was “at least 80%”. The inhibition of growth at 20 ppm (with Botryotinia fuckeliana; in the assay on Glomerella lagenarium; in the assay with Fusarium culmorum; in the assay with Monographella nivalis; in the assay on Mycosphaerella arachidis; in assay [2]) was at least 80% each time. Further, the “control of Blumeria graminis f. sp. tritici compared to untreated control” value in assay [1] is reported as “at least 80%”. For the same compound, the “control of Phaeosphaeria nodorum compared to untreated control” value in the assay on Phaeosphaeria nodorum is “at least 80%”. The “control of Pyrenophora teres compared to untreated control” value in the assay on Pyrenophora teres was “at least 80%”.
